PMC10962654 (Journal of Food and Drug Analysis, 2023)
Like-named read-outs stand apart in the source and are kept apart here.

Tests used:
[1] = MI/R rats, plasma, n = 6
[2] = system: cTn I; experiment: Plasma cTn I; assay type: in vivo, Sprague Dawley rats; settings: GHI-L ([…], i.v.), MI/R rats, Sigmoid-Emax model

| SMILES | CL2 ([1]; GHI-H (GHI 10 mL/kg, i.v.)) [mL/min/kg] | K10 ([1]; GHI-H (GHI 10 mL/kg, i.v.)) [h⁻¹] | K12 ([1]; GHI-H (GHI 10 mL/kg, i.v.)) [h⁻¹] | K21 ([1]; GHI-H (GHI 10 mL/kg, i.v.)) [h⁻¹] | Q ([1]; GHI-H (GHI 10 mL/kg, i.v.)) [mL/min/kg] | V1 ([1]; GHI-H (GHI 10 mL/kg, i.v.)) [L/kg] | V2 ([1]; GHI-H (GHI 10 mL/kg, i.v.)) [L/kg] | t1/2α ([1]; GHI-H (GHI 10 mL/kg, i.v.)) [min] | CL1 ([1]; GHI-L (GHI […], i.v.)) [mL/min/kg] | CL2 ([1]; GHI-L (GHI […], i.v.)) [mL/min/kg] | K10 ([1]; GHI-L (GHI […], i.v.)) [h⁻¹] | K12 ([1]; GHI-L (GHI […], i.v.)) [h⁻¹] | K21 ([1]; GHI-L (GHI […], i.v.)) [h⁻¹] | Q ([1]; GHI-L (GHI […], i.v.)) [mL/min/kg] | V1 ([1]; GHI-L (GHI […], i.v.)) [L/kg] | V2 ([1]; GHI-L (GHI […], i.v.)) [L/kg] | t1/2α ([1]; GHI-L (GHI […], i.v.)) [min] | CL1 ([1]; GHI-M (GHI 5 mL/kg, i.v.)) [mL/min/kg] | CL2 ([1]; GHI-M (GHI 5 mL/kg, i.v.)) [mL/min/kg] | K10 ([1]; GHI-M (GHI 5 mL/kg, i.v.)) [h⁻¹] | other results |
| --- | --- | --- | --- | --- | --- | --- | --- | --- | --- | --- | --- | --- | --- | --- | --- | --- | --- | --- | --- | --- | --- |
| O=c1c(O[C@@H]2O[C@H](CO)[C@H](O)[C@H](O)[C@H]2O)c(-c2ccc(O)c(O)c2)oc2cc(O)cc(O)c12 [Hyperoside, hyperoside] | 120.9 ± 37.88 | 21.205 ± 16.45 | 26.235 ± 8.526 | 6.031 ± 0.862 | 121 ± 37.85 | 0.309 ± 0.126 | 1.207 ± 0.352 | 0.9 ± 0.24 | 88.93 ± 8.22 | 144.8 ± 10.5 | 11.259 ± 2.48 | 18.242 ± 3.358 | 2.929 ± 0.214 | 144.8 ± 10.5 | 0.493 ± 0.117 | 2.979 ± 0.292 | 1.38 ± 0.3 | 76.58 ± 3.37 | 76.22 ± 11.2 | 14.742 ± 5.174 | CL1 ([1]; GHI-H (GHI 10 mL/kg, i.v.)): 81.92 ± 12 mL/min/kg; K12 ([1]; GHI-M (GHI 5 mL/kg, i.v.)): 14.086 ± 2.688 h⁻¹; K21 ([1]; GHI-M (GHI 5 mL/kg, i.v.)): 4.889 ± 0.407 h⁻¹; Q ([1]; GHI-M (GHI 5 mL/kg, i.v.)): 76.2 ± 11.2 mL/min/kg; V1 ([1]; GHI-M (GHI 5 mL/kg, i.v.)): 0.34 ± 0.1 L/kg; V2 ([1]; GHI-M (GHI 5 mL/kg, i.v.)): 0.935 ± 0.119 L/kg; t1/2α ([1]; GHI-M (GHI 5 mL/kg, i.v.)): 1.38 ± 0.3 min |
| O=c1c(O[C@@H]2O[C@H](CO)[C@@H](O)[C@H](O)[C@H]2O)c(-c2ccc(O)cc2)oc2cc(O)cc(O)c12 [Kaempferol-3-O-glucoside, kaempferol-3-O-glucoside] | 141.2 ± 10.2 | 9.636 ± 0.934 | 17.927 ± 1.512 | 6.02 ± 0.636 | 141.2 ± 10.2 | 0.475 ± 0.044 | 1.419 ± 0.173 | 1.32 ± 0.12 | 87.58 ± 9.88 | 133.3 ± 27.68 | 10.09 ± 2.541 | 15.148 ± 3.65 | 2.832 ± 0.492 | 133.3 ± 27.67 | 0.54 ± 0.101 | 2.822 ± 0.3 | 1.56 ± 0.3 | 68.72 ± 8.47 | 79.43 ± 17.82 | 8.042 ± 3.472 | Emax (maximal effect) of optimal PK/PD equation, ΔcTn I [2]: 4.625; AUC(0-t) ([1]; GHI-H (GHI 10 mL/kg, i.v.)): 116.314 ± 56.651 ng·h/mL; AUC(0-∞) ([1]; GHI-H (GHI 10 mL/kg, i.v.)): 122.652 ± 56.297 ng·h/mL; t1/2β ([1]; GHI-H (GHI 10 mL/kg, i.v.)): 23.1 ± 3.18 min; AUC(0-t) ([1]; GHI-L (GHI […], i.v.)): 23.576 ± 12.633 ng·h/mL; AUC(0-∞) ([1]; GHI-L (GHI […], i.v.)): 25.109 ± 12.653 ng·h/mL; t1/2β ([1]; GHI-L (GHI […], i.v.)): 40.4 ± 5.64 min; AUC(0-t) ([1]; GHI-M (GHI 5 mL/kg, i.v.)): 31.49 ± 12.303 ng·h/mL; AUC(0-∞) ([1]; GHI-M (GHI 5 mL/kg, i.v.)): 35.448 ± 11.949 ng·h/mL; K12 ([1]; GHI-M (GHI 5 mL/kg, i.v.)): 9.709 ± 5.342 h⁻¹; K21 ([1]; GHI-M (GHI 5 mL/kg, i.v.)): 3.087 ± 1.742 h⁻¹; Q ([1]; GHI-M (GHI 5 mL/kg, i.v.)): 79.4 ± 17.78 mL/min/kg; V1 ([1]; GHI-M (GHI 5 mL/kg, i.v.)): 0.59 ± 0.22 L/kg; V2 ([1]; GHI-M (GHI 5 mL/kg, i.v.)): 1.87 ± 0.735 L/kg; t1/2α ([1]; GHI-M (GHI 5 mL/kg, i.v.)): 2.7 ± 1.44 min; t1/2β ([1]; GHI-M (GHI 5 mL/kg, i.v.)): 41.5 ± 21.7 min |
